Test results as given in patent US20110178396A1, “Nicotinamide Derivatives” (CRC FOR BIOMEDICAL IMAGING DEVELOPMENT LTD., priority 2008, published 2011).

System: B16F0 melanoma tumour
Assay: Biodistribution in B16 melanoma bearing mice
Format: in vivo, C57BL/6J mice
Conditions: B16 melanoma bearing mice
Experimental: Animal experiments were performed in compliance with the NHMRC Australian Code of Practice for the care and use of animals for scientific purposes. Female C57BL/6J black and BALB/c nude albino mice of 5 weeks age were obtained from the Animal Resources Centre, Western Australia. B16F0 murine melanoma cells were originally obtained from European Collection of Cell Cultures (UK) and A375 human amelanotic melanoma cells were originally obtained from American Type Culture Collection (USA). Before transplantation, B16F0 and A375 melanoma cells were maintained as a monolayer in RPMI culture medium supplemented with 10% foetal calf serum and antibiotics and passaged with trypsinisation. Early passages were frozen and stored in liquid nitrogen. Cells were passaged to P=10 and then discarded. Frozen aliquots were grown in a monolayer culture to between 80-95% confluence and for transplantation were trypsinised and washed with Ca^2+ and Mg^2+ free phosphate buffered saline (PBS). For inoculation, B16F0 melanoma cells were resuspended in Ca^2+ and Mg^2+ free PBS at 3 or 5×10^6 viable cells per ml and 0.1 ml was subcutaneously injected at the left flank of 6-7 weeks old C57BL/6J mice. Eleven days later, tumours could be palpated in >98% of inoculated animals. A375 human melanoma cells were resuspended at 1×10^7 viablecells per ml and 0.1 ml was injected subcutaneously at the left flank of 6 weeks old BALB/c nude mice and 25-26 days later tumours could be palpated with ˜60% of inoculated animals developing tumours.
Eleven days (B16F0 melanoma) and 25 days (A375 human melanoma) after tumour transplantation, the [^18F]nicotinamides (0.5-1.5 MBq, 100 μl) and [^123I]nicotinamide (0.37-0.74 MBq, 100 μl) derivatives were injected intravenously via the tail vein into mice (15-18 g). Time points of 1, 3, 6, 24, 48, 72 h after injection were chosen for determining the distribution of each compound in various organs and tissues for the iodine-123 labelled compounds and between 15 min and 6 hours (e.g. 15 min, 30 min, 1 h, 2 h, 4 h or 6 h) were chosen for the ^18F-labelled compounds. At defined times post injection, groups of mice (n=5) were weighed, sacrificed by CO2 administration followed by cervical dislocation and dissected. Selected organs were weighed and their radioactivity measured with a γ-counter. The remaining activity in the carcass was also determined in order to obtain the total activity in the mouse at defined time points. The fraction of injected activity (% ID) in the organ was calculated by comparison with suitable dilutions of the injected dose. Then, the radioactivity concentration in the organ (% ID/g) was found by dividing the % ID for each organ by the weight of the organ.

CCN(CC)CCNC(=O)c1cccnc1F [[^18F]MEL6, 2-Fluoro-N-[2-(diethylamino)ethyl]nicotinantide]
uptake BLOOD (15 min): 2.8 % ID/g | uptake BONE (15 min): 4.8 % ID/g | uptake BRAIN (15 min): 6.2 % ID/g | uptake EYES (15 min): 36.7 % ID/g | uptake GIT (15 min): 7.8 % ID/g | uptake HEART (15 min): 3.7 % ID/g | uptake KIDNEY (15 min): 16.4 % ID/g | uptake LIVER (15 min): 12.2 % ID/g | uptake LUNGS (15 min): 5.0 % ID/g | uptake MUSCLE (15 min): 4.0 % ID/g | uptake SKIN (15 min): 2.7 % ID/g | uptake SPLEEN (15 min): 11.8 % ID/g | uptake STOMACH (15 min): 14.7 % ID/g | uptake THYROID (15 min): 4.5 % ID/g | uptake TUMOUR (15 min): 10.6 % ID/g | uptake BLOOD (1 h): 0.9 % ID/g | uptake BONE (1 h): 3.4 % ID/g | uptake BRAIN (1 h): 1.6 % ID/g | uptake EYES (1 h): 38.0 % ID/g | uptake GIT (1 h): 7.1 % ID/g | uptake HEART (1 h): 1.2 % ID/g | uptake KIDNEY (1 h): 4.0 % ID/g | uptake LIVER (1 h): 4.9 % ID/g | uptake LUNGS (1 h): 1.5 % ID/g | uptake MUSCLE (1 h): 1.2 % ID/g | uptake SKIN (1 h): 1.0 % ID/g | uptake SPLEEN (1 h): 9.2 % ID/g | uptake STOMACH (1 h): 6.8 % ID/g | uptake THYROID (1 h): 2.2 % ID/g | uptake TUMOUR (1 h): 14.6 % ID/g | uptake BLOOD (3 h): 0.2 % ID/g | uptake BONE (3 h): 4.6 % ID/g | uptake BRAIN (3 h): 0.4 % ID/g | uptake EYES (3 h): 36.3 % ID/g | uptake GIT (3 h): 7.1 % ID/g | uptake HEART (3 h): 0.3 % ID/g | uptake KIDNEY (3 h): 0.8 % ID/g | uptake LIVER (3 h): 1.9 % ID/g | uptake LUNGS (3 h): 0.3 % ID/g | uptake MUSCLE (3 h): 0.3 % ID/g | uptake SKIN (3 h): 0.2 % ID/g | uptake SPLEEN (3 h): 2.5 % ID/g | uptake STOMACH (3 h): 1.9 % ID/g | uptake THYROID (3 h): 2.1 % ID/g | uptake TUMOUR (3 h): 17.3 % ID/g | uptake BLOOD (6 h): 0.1 % ID/g | uptake BONE (6 h): 5.6 % ID/g | uptake BRAIN (6 h): 0.1 % ID/g | uptake EYES (6 h): 27.4 % ID/g | uptake GIT (6 h): 3.6 % ID/g | uptake HEART (6 h): 0.2 % ID/g | uptake KIDNEY (6 h): 0.2 % ID/g | uptake LIVER (6 h): 1.0 % ID/g | uptake LUNGS (6 h): 0.2 % ID/g | uptake MUSCLE (6 h): 0.2 % ID/g | uptake SKIN (6 h): 0.9 % ID/g | uptake SPLEEN (6 h): 0.5 % ID/g | uptake STOMACH (6 h): 0.7 % ID/g | uptake THYROID (6 h): 3.2 % ID/g | uptake TUMOUR (6 h): 4.8 % ID/g
